Source: patent US8889667B2 (Agios Pharmaceuticals, Inc, priority 2010, dated 2014)

These compounds were tested against PKM2 (Homo sapiens, UniProt P14618) (assay: PKM2 Assay (activation, LDH-coupled, absorbance at 340 nm)). Conditions: Table 5.
Chain of PKM2 (P14618 whole entry): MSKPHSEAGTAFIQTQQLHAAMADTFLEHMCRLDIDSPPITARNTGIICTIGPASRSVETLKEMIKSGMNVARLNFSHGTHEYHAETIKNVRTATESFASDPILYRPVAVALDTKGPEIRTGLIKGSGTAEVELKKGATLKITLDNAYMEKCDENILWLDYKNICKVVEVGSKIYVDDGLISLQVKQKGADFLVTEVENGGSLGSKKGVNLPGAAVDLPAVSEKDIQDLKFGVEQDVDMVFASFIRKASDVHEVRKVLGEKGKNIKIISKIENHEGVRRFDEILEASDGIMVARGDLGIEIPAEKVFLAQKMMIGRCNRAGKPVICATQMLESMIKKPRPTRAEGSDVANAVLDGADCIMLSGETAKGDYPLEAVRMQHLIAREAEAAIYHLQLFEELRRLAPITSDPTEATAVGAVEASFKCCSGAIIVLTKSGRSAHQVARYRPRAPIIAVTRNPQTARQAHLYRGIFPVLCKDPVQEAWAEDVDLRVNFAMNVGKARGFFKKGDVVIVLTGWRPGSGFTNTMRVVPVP
Format: biochemical
How it was run: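 Read-out was the 340 nm NADH absorbance change at 25 °C in an LDH-coupled system (PEP 0.15 mM, NADH 180 μM, ADP 0.7 mM to initiate) in 50 mM Tris pH 7.5, 100 mM KCl, 5 mM MgCl2. PKM2 at 50 ng/well was first preincubated with compound for 30 min at 4 °C. Activation given as AC50.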
In the case of `O=C(c1ccc(NS(=O)(=O)c2cccc3cccnc23)c(OC(F)(F)F)c1)N1CCN(Cc2ccc(F)c(Cl)c2)CC1` [Compound 376, N-(4-(4-(3-chloro-4-fluorobenzyl)piperazine-1-carbonyl)-2-(trifluoromethoxy)phenyl)quinoline-8-sulfonamide], the AC50 is reported as 100 to 500 nM.
Work on `O=C(c1ccc(NS(=O)(=O)c2cccc3cccnc23)c(OC(F)(F)F)c1)N1CCN(Cc2cccc(F)c2)CC1` [Compound 377, N-(4-(4-(3-fluorobenzyl)piperazine-1-carbonyl)-2-(trifluoromethoxy)phenyl)quinoline-8-sulfonamide] yielded an AC50 of 100 to 500 nM.
Compound `O=C(c1ccc(NS(=O)(=O)c2cccc3cccnc23)c(OC(F)(F)F)c1)N1CCN(Cc2ccc(F)c(F)c2)CC1` [Compound 378, N-(4-(4-(3,4-difluorobenzyl)piperazine-1-carbonyl)-2-(trifluoromethoxy)phenyl)quinoline-8-sulfonamide] has an AC50 of 100 to 500 nM.
In the case of `O=C(c1ccc(NS(=O)(=O)c2cccc3cccnc23)c(OC(F)(F)F)c1)N1CCN(Cc2cccc(Cl)c2)CC1` [Compound 379, N-(4-(4-(3-chlorobenzyl)piperazine-1-carbonyl)-2-(trifluoromethoxy)phenyl)quinoline-8-sulfonamide], the AC50 is reported as 100 to 500 nM.
Compound `O=C(c1ccc(NS(=O)(=O)c2cccc3cccnc23)c(OC(F)(F)F)c1)N1CCN(Cc2ncc[nH]2)CC1` [Compound 380, N-(4-(4-((1H-imidazol-2-yl)methyl)piperazine-1-carbonyl)-2-(trifluoromethoxy)phenyl)quinoline-8-sulfonamide] has an AC50 of 100 to 500 nM.
In the case of `O=C(c1ccc(NS(=O)(=O)c2cccc3cccnc23)c(OC(F)(F)F)c1)N1CCN(Cc2c[nH]cn2)CC1` [Compound 381, N-(4-(4-((1H-imidazol-4-yl)methyl)piperazine-1-carbonyl)-2-(trifluoromethoxy)phenyl)quinoline-8-sulfonamide], the AC50 is reported as 100 to 500 nM.
With `O=C(c1ccc(NS(=O)(=O)c2cccc3cccnc23)c(OC(F)(F)F)c1)N1CCN(Cc2ccn[nH]2)CC1` [Compound 382, N-(4-(4-((1H-pyrazol-5-yl)methyl)piperazine-1-carbonyl)-2-(trifluoromethoxy)phenyl)quinoline-8-sulfonamide] the AC50 was 100 to 500 nM.
With `O=C(c1ccc(NS(=O)(=O)c2cccc3cccnc23)c(OC(F)(F)F)c1)N1CCN(Cc2cn[nH]c2)CC1` [Compound 383] the AC50 was 100 to 500 nM.
For `O=C(c1ccc(NS(=O)(=O)c2cccc3cccnc23)cc1)N1CCN(Cc2cc[nH]n2)CC1` [Compound 384], the AC50 was less than 100 nM.
Compound `O=C(c1ccc(NS(=O)(=O)c2cccc3cccnc23)cc1)N1CCN(Cc2cn[nH]c2)CC1` [Compound 385, N-(4-(4-((1H-pyrazol-4-yl)methyl)piperazine-1-carbonyl)phenyl)quinoline-8-sulfonamide] has an AC50 of less than 100 nM.
For `O=C(c1ccc(NS(=O)(=O)c2cccc3cccnc23)cc1)N1CCN(Cc2c[nH]cn2)CC1` [Compound 386, N-(4-(4-((1H-imidazol-4-yl)methyl)piperazine-1-carbonyl)phenyl)quinoline-8-sulfonamide], the AC50 was 100 to 500 nM.
`C[C@@H](c1ccccc1)N1CCN(C(=O)c2ccc(NS(=O)(=O)c3cccc4cccnc34)cc2)CC1` [Compound 387, (S)—N-(4-(4-(1-phenylethyl)piperazine-1-carbonyl)phenyl)quinoline-8-sulfonamide] showed an AC50 of less than 100 nM.
Compound `C[C@H](c1ccccc1)N1CCN(C(=O)c2ccc(NS(=O)(=O)c3cccc4cccnc34)cc2)CC1` [Compound 388, (R)—N-(4-(4-(1-phenylethyl)piperazine-1-carbonyl)phenyl)quinoline-8-sulfonamide] has an AC50 of less than 100 nM.
`O=C(c1ccc(NS(=O)(=O)c2cccc3cccnc23)c(OC(F)(F)F)c1)N1CCN(CCCc2ccccc2)CC1` [Compound 389] showed an AC50 of 500 to 1000 nM.
Compound `O=C(c1ccc(NS(=O)(=O)c2cccc3cccnc23)c(OC(F)(F)F)c1)N1CCN(Cc2cc(Cl)cc(Cl)c2)CC1` [Compound 391, N-(4-(4-(3,5-dichlorobenzyl)piperazine-1-carbonyl)-2-(trifluoromethoxy)phenyl)quinoline-8-sulfonamide] has an AC50 of 100 to 500 nM.
`COc1cccc(OC)c1CN1CCN(C(=O)c2ccc(NS(=O)(=O)c3cccc4cccnc34)c(OC(F)(F)F)c2)CC1` [Compound 392, N-(4-(4-(2,6-dimethoxybenzyl)piperazine-1-carbonyl)-2-(trifluoromethoxy)phenyl)quinoline-8-sulfonamide] was tested, and the AC50 was 500 to 1000 nM.
`COc1cc(NS(=O)(=O)c2cccc3cccnc23)ccc1C(=O)N1CCN(C2(c3ccccc3)CC2)CC1` [Compound 393, N-(3-methoxy-4-(4-(1-phenylcyclopropyl)piperazine-1-carbonyl)phenyl)quinoline-8-sulfonamide] showed an AC50 of less than 100 nM.
`O=C(c1ccc(NS(=O)(=O)c2cccc3cccnc23)cc1)N1CCN(Cc2cc(F)cc(F)c2)CC1` [Compound 394, N-(4-(4-(3,5-difluorobenzyl)piperazine-1-carbonyl)phenyl)quinoline-8-sulfonamide] showed an AC50 of less than 100 nM.
Compound `CC(c1cc(F)c(F)cc1F)N1CCN(C(=O)c2ccc(NS(=O)(=O)c3cccc4cccnc34)cc2)CC1` (stereo not drawn) [Compound 395, N-(4-(4-(1-(2,4,5-trifluorophenyl)ethyl)piperazine-1-carbonyl)phenyl)quinoline-8-sulfonamide] has an AC50 of less than 100 nM.
`CC(c1cc(F)cc(F)c1F)N1CCN(C(=O)c2ccc(NS(=O)(=O)c3cccc4cccnc34)cc2)CC1` (stereo not drawn) [Compound 396, N-(4-(4-(1-(2,3,5-trifluorophenyl)ethyl)piperazine-1-carbonyl)phenyl)quinoline-8-sulfonamide] was tested, and the AC50 was less than 100 nM.
In the case of `CC(c1c(F)cc(F)cc1F)N1CCN(C(=O)c2ccc(NS(=O)(=O)c3cccc4cccnc34)cc2)CC1` (stereo not drawn) [Compound 397, N-(4-(4-(1-(2,4,6-trifluorophenyl)ethyl)piperazine-1-carbonyl)phenyl)quinoline-8-sulfonamide], the AC50 is reported as less than 100 nM.
`CC(c1cc(F)c(F)c(F)c1)N1CCN(C(=O)c2ccc(NS(=O)(=O)c3cccc4cccnc34)cc2)CC1` (stereo not drawn) [Compound 398, N-(4-(4-(1-(3,4,5-trifluorophenyl)ethyl)piperazine-1-carbonyl)phenyl)quinoline-8-sulfonamide] was tested, and the AC50 was 1000 to 20000 nM.
With `O=C(c1ccc(NS(=O)(=O)c2cccc3cccnc23)cc1)N1CCN(C2(c3ccc(F)cc3)CC2)CC1` [Compound 399, N-(4-(4-(1-(4-fluorophenyl)cyclopropyl)piperazine-1-carbonyl)phenyl)quinoline-8-sulfonamide] the AC50 was less than 100 nM.
For `COc1cc(C(=O)N2CCN(C3(c4ccc(F)cc4)CC3)CC2)ccc1NS(=O)(=O)c1cccc2cccnc12` [Compound 400, N-(4-(4-(1-(4-fluorophenyl)cyclopropyl)piperazine-1-carbonyl)-2-methoxyphenyl)quinoline-8-sulfonamide], the AC50 was less than 100 nM.
In the case of `COc1cc(NS(=O)(=O)c2cccc3cccnc23)ccc1C(=O)N1CCN(C2(c3ccc(F)cc3)CC2)CC1` [Compound 401, N-(4-(4-(1-(4-fluorophenyl)cyclopropyl)piperazine-1-carbonyl)-3-methoxyphenyl)quinoline-8-sulfonamide], the AC50 is reported as less than 100 nM.
Work on `O=C(c1ccc(NS(=O)(=O)c2cccc3cccnc23)c(OC(F)(F)F)c1)N1CCN(C2(c3ccc(F)cc3)CC2)CC1` [Compound 402, N-(4-(4-(1-(4-fluorophenyl)cyclopropyl)piperazine-1-carbonyl)-2-(trifluoromethoxy)phenyl)quinoline-8-sulfonamide] yielded an AC50 of 100 to 500 nM.
With `CC(c1ccc(F)c(F)c1F)N1CCN(C(=O)c2ccc(NS(=O)(=O)c3cccc4cccnc34)cc2)CC1` (stereo not drawn) [Compound 403, N-(4-(4-(1-(2,3,4-trifluorophenyl)ethyl)piperazine-1-carbonyl)phenyl)quinoline-8-sulfonamide] the AC50 was less than 100 nM.
For `CC(c1c(F)ccc(F)c1F)N1CCN(C(=O)c2ccc(NS(=O)(=O)c3cccc4cccnc34)cc2)CC1` (stereo not drawn) [Compound 404, N-(4-(4-(1-(2,3,6-trifluorophenyl)ethyl)piperazine-1-carbonyl)phenyl)quinoline-8-sulfonamide], the AC50 was less than 100 nM.
Work on `CC(C)(c1cccc(F)c1)N1CCN(C(=O)c2ccc(NS(=O)(=O)c3cccc4cccnc34)cc2)CC1` [Compound 405] yielded an AC50 of less than 100 nM.
`O=C(c1ccc(NS(=O)(=O)c2cccc3cccnc23)cc1)N1CCN(C2(c3ccccc3)CCCC2)CC1` [Compound 406, N-(4-(4-(1-phenylcyclopentyl)piperazine-1-carbonyl)phenyl)quinoline-8-sulfonamide] gave an AC50 of less than 100 nM.
`O=C(c1ccc(NS(=O)(=O)c2cccc3cccnc23)cc1)N1CCN(C2(c3ccccc3)CCCCC2)CC1` [Compound 407, N-(4-(4-(1-phenylcyclohexyl)piperazine-1-carbonyl)phenyl)quinoline-8-sulfonamide] gave an AC50 of less than 100 nM.
In the case of `O=C(c1ccc(NS(=O)(=O)c2cccc3cccnc23)cc1)N1CCN(C2(c3ccccc3)CCC2)CC1` [Compound 408, N-(4-(4-(1-phenylcyclobutyl)piperazine-1-carbonyl)phenyl)quinoline-8-sulfonamide], the AC50 is reported as less than 100 nM.
Compound `CC(C)(c1ccccc1F)N1CCN(C(=O)c2ccc(NS(=O)(=O)c3cccc4cccnc34)cc2)CC1` [Compound 409, N-(4-(4-(2-(2-fluorophenyl)propan-2-yl)piperazine-1-carbonyl)phenyl)quinoline-8-sulfonamide] has an AC50 of 100 to 500 nM.
In the case of `CC(C)(c1cc(F)cc(F)c1)N1CCN(C(=O)c2ccc(NS(=O)(=O)c3cccc4cccnc34)cc2)CC1` [Compound 410], the AC50 is reported as less than 100 nM.
`O=C(c1ccc(NS(=O)(=O)c2cccc3cccnc23)nc1)N1CCN(CC2CC2)CC1` [Compound 411, N-(5-(4-(cyclopropylmethyl)piperazine-1-carbonyl)pyridin-2-yl)quinoline-8-sulfonamide] was tested, and the AC50 was 1000 to 20000 nM.
`O=C(c1ccc(NS(=O)(=O)c2cccc3cccnc23)nc1)N1CCN(Cc2ccc(F)cc2)CC1` [Compound 412, N-(5-(4-(4-fluorobenzyl)piperazine-1-carbonyl)pyridin-2-yl)quinoline-8-sulfonamide] was tested, and the AC50 was 100 to 500 nM.
